Data on 3 compounds can be found in patent US5607707A, “Compositions” (priority 1992, dated 1997).

Series [1] can be described thus: Effect of temperature on amount of emulsifier required to achieve optical clarity (Example 6). The format is physicochemical. The conditions noted are these: for Tween 60 required to achieve optical clarity: 1 g crystalline β-carotene. On the procedure: One advantage of the present invention is the wide range of temperatures which can be used in b) above. The temperature developed in mixing in b) is preferably 80°-160° or 180°-200° C. The lower temperatures are particularly useful where more temperature sensitive ingredients are involved. […] Therefore to minimise the amount of emulsifier(s) used, a temperature of not less than 160° C. or preferably 180° C. is preferred. The use of these high temperatures incurs the risk of degradation of pigment unless suitable precautions are taken. For example it is necessary to incorporate an antioxidant in the initial stages of preparation and it is desirable to exclude oxygen by heating the mixture in an atmosphere of nitrogen.
1 g of crystalline β-carotene required the following amounts of Tween 60 at the temperatures stated

How the values of series [2] were obtained: The colour stability of the compositions according to the present invention were determined using the following simulated shelf and accelerated storage tests.
This is illustrated with data from a study in which combinations of β-carotene, apo-carotenal and ascorbic acid were incorporated in a typical beverage formulation. The products were stored in bright daylight conditions for a period of 30 days and the colour loss at the end of this period was determined by spectrophotometry.

A short description of series [3]: Water solubility / dissolution. Format: physicochemical. As to conditions: primary addition of apo-carotenal, in words.

For `CC1=C(/C=C/C(C)=C/C=C/C(C)=C/C=C/C=C(C)/C=C/C=C(C)/C=C/C2=C(C)CCCC2(C)C)C(C)(C)CCC1` [crystalline β-carotene, β-carotene], the “Tween 60 required to achieve optical clarity” value in series [1] (140 °C) is listed as 10.5 g; in series [1] (160 °C), 7.5 g; in series [1] (180 °C) it was 4.0 g; in series [1] (200 °C) it was 3.0 g. Moreover, the “effect of temperature on emulsifier required to achieve optical clarity” value in series [1] (pure β-carotene, in words) is given as “an increase in temperature permits a reduction in the amount of emulsifier(s) required”.
Turning to `CC(C=O)=CC=CC(C)=CC=CC=C(C)C=CC=C(C)C=CC1=C(C)CCCC1(C)C` [apo-carotenal, β-8'-apo-carotenal], the “stabilising effect on colour” value in series [2] is listed as “helps to stabilise β-carotene”. The “effect on dissolution of carotene” value in series [3] was “promoting the dissolution of carotene”.
As for `O=C1O[C@H]([C@@H](O)CO)C(O)=C1O` [ascorbic acid], the “stabilising effect on colour” value in series [2] is “effective in reinforcing the stabilising effect of the antioxidants”.
